Data as given in paper PMC12514842, “Ligand binding Pro‐miscuity of acylpeptide hydrolase, structural analysis of a detoxifying serine hydrolase” (Protein Science : A Publication of the Protein Society, 2025).

Key:
[1] = target: T1, PhAPEH (PhAAP) (Pyrococcus horikoshii, UniProt O58323); assay: hydrolysis of p-nitroanilide substrate; assay type: biochemical
T1 construct: gene PH0594; produced by the authors; details only in Data S1 chapter II
T1 sequence (O58323 1-622): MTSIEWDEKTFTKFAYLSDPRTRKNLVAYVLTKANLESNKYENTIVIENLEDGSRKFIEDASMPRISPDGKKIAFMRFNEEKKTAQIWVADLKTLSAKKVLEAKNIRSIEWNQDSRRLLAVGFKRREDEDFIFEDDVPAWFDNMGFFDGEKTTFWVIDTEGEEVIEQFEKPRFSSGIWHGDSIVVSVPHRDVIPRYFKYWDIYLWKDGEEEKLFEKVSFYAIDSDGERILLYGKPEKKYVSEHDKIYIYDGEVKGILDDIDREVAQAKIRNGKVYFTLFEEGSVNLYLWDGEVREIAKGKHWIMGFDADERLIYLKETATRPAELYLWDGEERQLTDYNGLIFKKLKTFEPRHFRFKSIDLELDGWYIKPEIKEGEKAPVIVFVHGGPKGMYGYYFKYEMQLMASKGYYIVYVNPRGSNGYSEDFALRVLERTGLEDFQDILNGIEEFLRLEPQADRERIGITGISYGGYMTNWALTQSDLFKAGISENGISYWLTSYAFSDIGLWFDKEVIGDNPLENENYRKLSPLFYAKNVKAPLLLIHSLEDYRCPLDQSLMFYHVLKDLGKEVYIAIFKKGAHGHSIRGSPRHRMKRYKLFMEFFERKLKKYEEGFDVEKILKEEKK

[2] = target: T2, ApAPEH (ApAAP) (Aeropyrum pernix, UniProt Q9YBQ2); assay: hydrolysis of p-nitroanilide substrate; assay type: biochemical
T2 construct: gene APE_1547.1; produced by the authors; details only in Data S1 chapter II
T2 sequence (Q9YBQ2 whole entry): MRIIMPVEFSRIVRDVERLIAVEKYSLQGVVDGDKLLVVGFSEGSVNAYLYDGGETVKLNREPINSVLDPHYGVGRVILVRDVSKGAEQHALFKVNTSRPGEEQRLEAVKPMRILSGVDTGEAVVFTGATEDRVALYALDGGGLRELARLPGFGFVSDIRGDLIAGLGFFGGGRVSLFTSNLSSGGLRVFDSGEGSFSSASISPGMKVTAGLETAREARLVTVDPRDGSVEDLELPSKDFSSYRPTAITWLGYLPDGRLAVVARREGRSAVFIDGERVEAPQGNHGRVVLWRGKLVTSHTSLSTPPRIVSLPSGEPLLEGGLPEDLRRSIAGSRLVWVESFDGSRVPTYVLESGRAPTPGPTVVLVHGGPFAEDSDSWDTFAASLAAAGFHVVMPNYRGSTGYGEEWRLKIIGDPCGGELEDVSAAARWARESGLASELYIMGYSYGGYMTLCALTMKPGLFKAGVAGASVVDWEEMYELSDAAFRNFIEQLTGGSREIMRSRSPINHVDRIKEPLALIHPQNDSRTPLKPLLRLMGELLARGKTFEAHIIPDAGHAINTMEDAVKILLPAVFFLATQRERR

[3] = target: T3, pAPEH (porcine liver acylpeptide hydrolase, acylaminoacyl-peptidase, AAP) (Sus scrofa, UniProt P19205); assay: cryo-EM structure of complex ([…] A); assay type: binding; conditions: covalent; Ser587 and His707; 10-fold molar excess, pH 7.5, 37 °C, 1 h
T3 construct: gene APEH; native, purified from porcine liver; homotetramer; catalytic Ser587, Asp675, His707
T3 sequence (P19205 1-732): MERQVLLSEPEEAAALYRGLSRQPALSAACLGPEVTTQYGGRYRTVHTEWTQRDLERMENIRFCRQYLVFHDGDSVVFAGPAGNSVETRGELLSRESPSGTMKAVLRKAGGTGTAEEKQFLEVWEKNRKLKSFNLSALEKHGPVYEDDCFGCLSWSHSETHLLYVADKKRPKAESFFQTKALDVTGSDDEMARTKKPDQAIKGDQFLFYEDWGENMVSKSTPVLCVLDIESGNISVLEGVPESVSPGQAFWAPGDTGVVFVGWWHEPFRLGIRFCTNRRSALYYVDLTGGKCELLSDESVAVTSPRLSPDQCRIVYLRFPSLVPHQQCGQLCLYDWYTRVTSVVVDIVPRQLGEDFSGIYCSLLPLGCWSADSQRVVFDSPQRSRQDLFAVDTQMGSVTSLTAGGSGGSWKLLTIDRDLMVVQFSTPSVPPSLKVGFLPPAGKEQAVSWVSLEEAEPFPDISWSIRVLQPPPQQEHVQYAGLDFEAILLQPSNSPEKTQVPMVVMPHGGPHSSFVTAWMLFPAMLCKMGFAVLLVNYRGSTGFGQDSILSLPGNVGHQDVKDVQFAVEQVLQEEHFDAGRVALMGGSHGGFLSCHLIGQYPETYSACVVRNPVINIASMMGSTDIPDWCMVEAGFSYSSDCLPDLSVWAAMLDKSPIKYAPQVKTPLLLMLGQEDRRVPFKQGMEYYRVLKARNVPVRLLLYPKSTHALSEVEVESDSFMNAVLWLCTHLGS

[4] = target: T3, pAPEH (porcine liver acylpeptide hydrolase, acylaminoacyl-peptidase, AAP); assay type: binding
[5] = target: T3, pAPEH (porcine liver acylpeptide hydrolase, acylaminoacyl-peptidase, AAP); assay type: binding; remark: listed apart in the source

SMILES: CC(=O)N[C@@H](CC(C)C)C(=O)Nc1ccc([N+](=O)[O-])cc1 [Ac-Leu-pNA]
- hydrolysis of p-nitroanilide substrate [1]: archaeal variants are quite selective toward their specific substrate Ac‐Leu‐pNA
- hydrolysis of p-nitroanilide substrate [2]: archaeal variants are quite selective toward their specific substrate Ac‐Leu‐pNA

SMILES: CC(=O)N[C@@H](C)C(=O)CCl [ligand 1, acetyl-alanyl-chloromethyl ketone]
- cryo-EM structure of complex (3.19 A) [3]: bound covalently to the active Ser587 and His707 (Figure 2a) of each monomer

SMILES: COP(=O)(OC)OC=C(Cl)Cl [ligand 2, dichlorvos]
- cryo-EM structure of complex (2.65 A) [4]: Dimethoxy‐phosphate (DMP) residue of dichlorvos is bound covalently to the active Ser587

SMILES: NCCc1ccc(S(=O)(=O)F)cc1 [ligand 3, 4-(2-aminoethyl)benzenesulfonyl fluoride]
- cryo-EM structure of complex (2.78 A) [5]: thus the inhibitor directly coordinates to the active Ser
